In US9695132B2, “Heteroaryl compounds and uses thereof” (Celgene CAR LLC, priority 2013, dated 2017):
Like-named read-outs stand apart in the source and are kept apart here.

Legend:
pFGFR4 in Huh7 cells = pFGFR4 in Huh7 cells (Homo sapiens (Human), UniProt P22455); assay: FGFR4 signaling, Meso Scale assay (MSD), Method B, Huh7
Description: Huh7 cells were grown in DMEM (Invitrogen, Carlsbad, Calif.) supplemented with 10% FBS (Invitrogen) and 1% Penicillin-Streptomycin (P/S, Lonza, Walkersville, Md.).
For the MSD and ELISA assays, total FGFR4 antibodies were obtained from R&D Systems (Minneapolis, Minn.) and used at 1:500. […] Phospho-FGFR antibodies were obtained from Cell Signaling (Danvers, Mass.) or R&D Systems and used at 1:1000. The phopho-FGFR antibody from Cell Signaling was used for immunoblotting, whereas the phopho-FGFR antibody from R&D was used for MSD and ELISA assays. Secondary antibodies were used at 1:10,000. The goat anti-mouse IgG IRDye 800CW antibody was obtained from LiCor Biosciences (Lincoln, Nebr.) and the goat anti-rabbit IgG Alexa Fluor 680 was obtained from Invitrogen. The anti-rabbit Sulfo-tag and anti-streptavidin Sulfo-tag antibodies was obtained from Meso Scale Discovery (Gaithersburg, Md.), and were used at 1:1000 and 1:5000, respectively.
After treatment, the cells were washed with cold PBS (Invitrogen), and were immediately lysed by freeze/thawing 3× in 32 μL of cold Cell Extraction Buffer (Invitrogen), which was supplemented with Complete Protease inhibitors (Roche) and PhosphoSTOP (Roche) phosphatase inhibitors.
MSD plates (Meso Scale Discovery) were coated with total FGFR-4 antibodies overnight at 4° C. A lysate (25 μL) was added to the MSD plate overnight at 4° C. The MSD signals were obtained by incubating with a phospho-FGFR antibody (R&D Systems) and an anti-rabbit sulfo-tag antibody (Meso Scale), for 2 hr at room temperature. […] The data was fitted using a sigmoidal curve analysis program (Graph Pad Prism version 5) with variable Hill slope to determine the EC50 values.

FGFR4-WT = FGFR4-WT (Homo sapiens (Human), UniProt P22455); assay: Omnia assay for potency assessment against FGFR4 enzyme; assay type: biochemical
Description: A 10× stock solution of FGFR4-WT (PR4380C), (from Invitrogen, Carlsbad, Calif.) corresponding to method a in Table 7, was prepared as described below. Alternatively, a 10× stock solution of FGFR4-WT (F01-11G), (SignalChem, Richmond, BC) corresponding to method b in Table 7, was prepared as described below. A solution of 1.4×ATP (AS001A) and 5× Tyr-Sox conjugated peptide substrate (KNZ3101) were prepared in 1× kinase reaction buffer consisting of 20 mM Tris, pH 7.5, 5 mM MgCl2, 1 mM EGTA, 5 mM β-glycerophosphate, 5% glycerol (10× stock, KB002A) and 0.2 mM DTT (DS001A). […] The serially diluted compounds were prepared on a Tecan EVO100. A second addition of 10 μl of Tyr-Sox FGFR4 substrate was added to each well and the kinase reactions were started with the addition of 35 μL of 1.4×ATP. The reactions were monitored every 71 seconds for 240 minutes at λex360/λem485 in a Synergy plate reader from BioTek (Winooski, Vt.).

[1] = method a: [FGFR4-WT]=10 nM (Invitrogen), [ATP]=300 uM, [Y10-Sox]=10 uM
[2] = method b: [FGFR4-WT]=2.5 nM (SignalChem), [ATP]=250 uM, [Y10-Sox]=10 uM

Chain of pFGFR4 in Huh7 cells (P22455 22-802): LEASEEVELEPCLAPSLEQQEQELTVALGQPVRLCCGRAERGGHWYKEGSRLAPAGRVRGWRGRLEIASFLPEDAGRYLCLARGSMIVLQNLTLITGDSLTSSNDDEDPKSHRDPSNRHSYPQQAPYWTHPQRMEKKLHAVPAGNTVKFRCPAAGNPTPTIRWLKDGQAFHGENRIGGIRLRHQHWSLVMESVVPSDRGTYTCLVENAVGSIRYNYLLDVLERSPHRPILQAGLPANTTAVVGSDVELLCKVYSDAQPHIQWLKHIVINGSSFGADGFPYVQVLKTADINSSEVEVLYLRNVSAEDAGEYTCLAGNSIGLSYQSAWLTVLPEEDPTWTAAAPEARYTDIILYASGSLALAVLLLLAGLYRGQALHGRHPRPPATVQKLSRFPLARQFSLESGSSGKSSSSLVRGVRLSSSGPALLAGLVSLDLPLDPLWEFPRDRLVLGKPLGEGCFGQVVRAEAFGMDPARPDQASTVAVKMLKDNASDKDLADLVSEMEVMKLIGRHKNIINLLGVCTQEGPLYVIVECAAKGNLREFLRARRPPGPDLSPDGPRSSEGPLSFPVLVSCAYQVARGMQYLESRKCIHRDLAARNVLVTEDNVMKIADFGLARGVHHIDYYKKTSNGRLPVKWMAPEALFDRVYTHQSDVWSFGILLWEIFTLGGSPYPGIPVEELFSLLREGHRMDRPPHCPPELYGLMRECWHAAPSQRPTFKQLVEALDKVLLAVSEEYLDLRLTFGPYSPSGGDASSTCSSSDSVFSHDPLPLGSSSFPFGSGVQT
Chain of FGFR4-WT (P22455 22-802): as above

SMILES | EC50 (pFGFR4 in Huh7 cells) [nM] | IC50 (FGFR4-WT; [1]) [nM] | IC50 (FGFR4-WT; [2]) [nM] | IC50 (FGFR4-WT) [nM]
C=CC(=O)N[C@H]1CCCC[C@H]1Nc1ncc2c(n1)N(Cc1cscn1)C(=O)N(c1c(Cl)c(OC)cc(OC)c1Cl)C2 [Compound I-114] | 101 to 500 | – | – | –
C=CC(=O)NC1CN(C2CCN(C)CC2)CC1Nc1ncc2c(n1)N(C)C(=O)N(c1c(Cl)c(OC)cc(OC)c1Cl)C2 (racemic) [Compound I-154] | > 1000 | 101 to 500 | – | –
C=CC(=O)Nc1ccccc1Nc1ncc2c(n1)N(CCF)C(=O)N(c1cc(OC)cc(OC)c1Cl)C2 [Compound I-110] | < 100 | < 100 | – | –
C=CC(=O)NC1COCC1Nc1ncc2c(n1)N(C)C(=O)N(c1c(Cl)c(OCC)cc(OCC)c1Cl)C2 (stereo not shown) [Compound I-205] | 101 to 500 | 101 to 500 | – | –
C=CC(=O)Nc1ccccc1Nc1ncc2cc(-c3cc(OC)cc(OC)c3)c(N)nc2n1 [Compound I-155] | > 1000 | – | – | –
C=CC(=O)NC1COCC1Nc1ncc2c(n1)N(C)C(=O)N(c1cc(C(=O)Nc3cccc(C(C)(C)C#N)c3)ccc1Cl)C2 (stereo not shown) [Compound I-246] | 101 to 500 | 101 to 500 | – | –
C=CC(=O)Nc1ccccc1Nc1ncc2c(n1)N(C1CCCNC1)C(=O)N(c1cc(OC)cc(OC)c1)C2 (stereo not shown) [Compound I-43] | > 1000 | < 100 | – | –
C=CC(=O)NC1CN(C)CC1Nc1ncc2c(n1)N(C)C(=O)N(c1c(Cl)c(OC)cc(OC)c1Cl)C2 (racemic) [Compound I-138] | 101 to 500 | – | – | –
C=CC(=O)NC1COCC1Nc1ncc2c(n1)N(C)C(=O)N(c1c(Cl)c(OC)cc(OC)c1Cl)C2 (stereo not shown) [Compound I-126] | < 100 | < 100 | – | –
C=CC(=O)NC1COCC1Nc1ncc2c(n1)N(CC1CC1)C(=O)N(c1c(Cl)c(OC)cc(OC)c1Cl)C2 (stereo not shown) [Compound I-212] | < 100 | – | – | –
C=CC(=O)N[C@H]1COCC[C@H]1Nc1ncc2c(n1)N(C)C(=O)N(c1c(Cl)c(OC)cc(OC)c1Cl)C2 [Compound I-140] | 101 to 500 | 101 to 500 | – | –
C=CC(=O)Nc1cc(C(F)(F)F)ccc1Nc1ncc2c(n1)N(Cc1ccccc1)C(=O)N(c1c(Cl)c(OC)cc(OC)c1Cl)C2 [Compound I-6] | 101 to 500 | – | 501 to 999 | –
C=CC(=O)Nc1cc(C)ccc1Nc1ncc2cc(-c3c(Cl)c(OC)cc(OC)c3Cl)c(=O)n(C)c2n1 [Compound I-243] | < 100 | < 100 | – | –
C=CC(=O)Nc1ccccc1Nc1ncc2c(n1)N(Cc1cn[nH]c1)C(=O)N(c1c(Cl)c(OC)cc(OC)c1Cl)C2 [Compound I-124] | < 100 | < 100 | – | –
C=CC(=O)NC1COCC1Nc1ncc2c(n1)N(C)C(=O)N(c1c(Cl)c(OC)c(OC)c(OC)c1Cl)C2 (stereo not shown) [Compound I-208] | > 1000 | 501 to 999 | – | –
C=CC(=O)NC1CN(c2ccncn2)CC1Nc1ncc2c(n1)N(C)C(=O)N(c1c(Cl)c(OC)cc(OC)c1Cl)C2 (stereo not shown) [Compound I-201] | 101 to 500 | < 100 | – | –
C=CC(=O)NC1COCC1Nc1ncc2c(n1)N(Cc1cnn(C)c1)C(=O)N(c1c(Cl)c(OC)cc(OC)c1Cl)C2 (stereo not shown) [Compound I-213] | < 100 | < 100 | – | –
C=CC(=O)Nc1ccc(C(F)(F)F)cc1Nc1ncc2c(n1)N(C)C(=O)N(c1cc(OC)cc(OC)c1)C2 [Compound I-50] | 101 to 500 | < 100 | – | –
C=CC(=O)Nc1ccccc1Nc1ncc2c(n1)N(Cc1cccc(C(N)=O)c1)C(=O)N(c1cc(OC)cc(OC)c1)C2 [Compound I-97] | 101 to 500 | < 100 | – | –
C=CC(=O)Nc1ccccc1Nc1ncc2c(n1)N(CC(F)F)C(=O)N(c1cc(OC)cc(OC)c1Cl)C2 [Compound I-104] | < 100 | < 100 | – | –
C=CC(=O)NC1COCC1Nc1ncc2c(n1)N(Cc1cn[nH]c1)C(=O)N(c1c(Cl)c(OC)cc(OC)c1Cl)C2 (stereo not shown) [Compound I-214] | 101 to 500 | – | – | –
C=CC(=O)Nc1ccccc1Nc1ncc2c(n1)N(Cc1cn[nH]c1)C(=O)N(c1cc(OC)cc(OC)c1)C2 [Compound I-121] | < 100 | < 100 | – | –
C=CC(=O)N[C@H]1CCCC[C@H]1Nc1ncc2cc(-c3c(Cl)c(OC)cc(OC)c3Cl)c(=O)n(C)c2n1 [Compound I-223] | < 100 | – | – | < 100
COc1cc(OC)c(Cl)c(N2Cc3cnc(Nc4ccccc4)nc3N(C)C2=O)c1Cl [Compound I-238] | < 100 | – | – | –
C=CC(=O)Nc1cc(F)ccc1Nc1ncc2cc(-c3c(Cl)c(OC)cc(OC)c3Cl)c(=O)n(C)c2n1 [Compound I-245] | < 100 | < 100 | – | –
C=CC(=O)Nc1ccccc1Nc1ncc2c(n1)N(Cc1ccnc(N)c1)C(=O)N(c1cc(OC)cc(OC)c1)C2 [Compound I-87] | < 100 | < 100 | – | –
C=CC(=O)NC1COCC1Nc1ncc2c(n1)N(C)C(=O)N(c1cc(C(=O)Nc3cccc(C(C)(C)C)c3)ccc1Cl)C2 (stereo not shown) [Compound I-247] | < 100 | 101 to 500 | – | –

SMILES | EC50 (pFGFR4 in Huh7 cells) [nM] | IC50 (FGFR4-WT; [1]) [nM] | IC50 (FGFR4-WT; [2]) [nM] | IC50 (FGFR4-WT) [nM]
C=CC(=O)Nc1ccccc1Nc1ncc2c(n1)N(Cc1cscn1)C(=O)N(c1cc(OC)cc(OC)c1)C2 [Compound I-64] | 101 to 500 | < 100 | – | –
C=CC(=O)Nc1ccccc1Nc1ncc2c(n1)N(C1COC1)C(=O)N(c1cc(OC)cc(OC)c1)C2 [Compound I-88] | 101 to 500 | < 100 | – | –
C=CC(=O)Nc1ccccc1Nc1ncc2c(n1)N(Cc1cccc(N)c1)C(=O)N(c1c(Cl)c(OC)cc(OC)c1Cl)C2 [Compound I-26] | < 100 | – | < 100 | –
C=CC(=O)Nc1cc(N(C)CCOC)ccc1Nc1ncc2c(n1)N(C)C(=O)N(c1cc(OC)cc(OC)c1)C2 [Compound I-21] | < 100 | < 100 | – | –
C=CC(=O)NC1COCC1Nc1ncc2c(n1)N(CC)C(=O)N(c1c(Cl)c(OC)cc(OC)c1Cl)C2 (stereo not shown) [Compound I-217] | < 100 | < 100 | – | –
C=CC(=O)Nc1ccccc1Nc1ncc2c(n1)N(CCF)C(=O)N(c1cc(OC)cc(OC)c1)C2 [Compound I-102] | < 100 | < 100 | – | –
C=CC(=O)NC1CS(=O)(=O)CC1Nc1ncc2c(n1)N(C)C(=O)N(c1c(Cl)c(OC)cc(OC)c1Cl)C2 (stereo not shown) [Compound I-200] | 101 to 500 | < 100 | – | –
C=CC(=O)NC1COCC1Nc1ncc2c(n1)N(Cc1cc[nH]n1)C(=O)N(c1c(Cl)c(OC)cc(OC)c1Cl)C2 (stereo not shown) [Compound I-216] | 101 to 500 | < 100 | – | –
C=CC(=O)NC1CN(C(C)=O)CC1Nc1ncc2c(n1)N(C)C(=O)N(c1c(Cl)c(OC)cc(OC)c1Cl)C2 (racemic) [Compound I-139] | 101 to 500 | – | – | –
C=CC(=O)Nc1cc(-c2nnn(C)n2)ccc1Nc1ncc2c(n1)N(C)C(=O)N(c1cc(OC)cc(OC)c1)C2 [Compound I-146] | 101 to 500 | < 100 | – | –
C=CC(=O)Nc1ccccc1Nc1ncc2c(n1)N(C)C(=O)N(c1cc(OC)cc(OC)c1)C2 [Compound I-5] | 101 to 500 | < 100 | – | –
C=CC(=O)N[C@H]1CCCC[C@H]1Nc1ncc2c(n1)N(C)C(=O)N(c1c(F)c(OC)cc(OC)c1Br)C2 [Compound I-228] | 101 to 500 | 101 to 500 | – | –
C=CC(=O)Nc1ccccc1Nc1ncc2c(n1)N(CC1CC1)C(=O)N(c1cc(OC)cc(OC)c1)C2 [Compound I-98] | < 100 | < 100 | – | –
C=CC(=O)Nc1ccccc1Nc1ncc2c(n1)N(CC(F)F)C(=O)N(c1c(F)c(OC)cc(OC)c1F)C2 [Compound I-116] | < 100 | < 100 | – | –
C=CC(=O)Nc1ccccc1Nc1ncc2c(n1)NC(=O)N(c1cc(OC)cc(OC)c1)C2 [Compound I-125] | > 1000 | 101 to 500 | – | –
C=CC(=O)Nc1ccccc1Nc1ncc2c(n1)N(CC1CC1)C(=O)N(c1cc(OC)cc(OC)c1Cl)C2 [Compound I-100] | < 100 | < 100 | – | –
C=CC(=O)N[C@H]1CCCC[C@H]1Nc1ncc2c(n1)N(C)C(=O)N(c1c(Cl)c(OCC)cc(OCC)c1Cl)C2 [Compound I-219] | 501 to 999 | 101 to 500 | – | –
C=CC(=O)N(C)C1COCC1Nc1ncc2c(n1)N(C)C(=O)N(c1c(Cl)c(OC)cc(OC)c1Cl)C2 (stereo not shown) [Compound I-218] | > 1000 | > 1000 | – | –
C=CC(=O)Nc1ccccc1Nc1ncc2c(n1)N(CC(O)CO)C(=O)N(c1cc(OC)cc(OC)c1)C2 (stereo not shown) [Compound I-33] | > 1000 | – | – | –
C=CC(=O)N[C@H]1CCCC[C@H]1Nc1ncc2c(n1)N(C)C(=O)N(c1c(Cl)c(OC)c(OC)c(OC)c1Cl)C2 [Compound I-221] | > 1000 | – | – | –
C=CC(=O)Nc1cc(OC)ccc1Nc1ncc2cc(-c3c(Cl)c(OC)cc(OC)c3Cl)c(=O)n(C)c2n1 [Compound I-242] | < 100 | – | – | –
C=CC(=O)NC1COCC1Nc1ncc2c(n1)N(Cc1cscn1)C(=O)N(c1c(Cl)c(OC)cc(OC)c1Cl)C2 (stereo not shown) [Compound I-210] | < 100 | – | – | –
C=CC(=O)Nc1cc(N2CCN(CCOC)CC2)ccc1Nc1ncc2c(n1)N(Cc1cccc(NC(=O)CC)c1)C(=O)N(c1cc(OC)cc(OC)c1)C2 [Compound I-9] | 101 to 500 | – | – | –
C=C(C)C(=O)Nc1ccccc1Nc1ncc2c(n1)N(C)C(=O)N(c1c(Cl)c(OC)cc(OC)c1Cl)C2 [Compound I-142] | – | < 100 | – | –
C=CC(=O)N(C)c1ccccc1Nc1ncc2c(n1)N(Cc1ccccc1)C(=O)N(c1c(Cl)c(OC)cc(OC)c1Cl)C2 [Compound I-37] | – | 101 to 500 | – | –
C=CC(=O)NC1CCCCC1Nc1ncc2c(n1)N(CCF)C(=O)N(c1c(Cl)c(OC)cc(OC)c1Cl)C2 (racemic) [Compound I-106] | 101 to 500 | – | – | –
